In US11371055B2, “Herbicide resistance genes” (CORTEVA AGRISCIENCE LLC, priority 2005, dated 2022):
Marks after values point to notes of the source that are not given here.

How the values were obtained:
[1] = system: AAD-12 (v1) T1 tobacco plants; test: Cross tolerance of T1 tobacco to phenoxy and pyridyloxy auxin herbicides; format: in vivo, Nicotiana tabacum
Source text: (§1) Two to four T0 individuals surviving high rates of 2,4-D and fluroxypyr were saved from each event and allowed to self fertilize in the greenhouse to give rise to T1 seed. The T1 seed was stratified, and sown into selection trays much like that of Arabidopsis (Example 7.4), followed by selective removal of untransformed nulls in this segregating population with 560 g ai/ha glufosinate (PAT gene selection). Survivors were transferred to individual 3-inch pots in the greenhouse. These lines provided high levels of resistance to 2,4-D in the T0 generation. Improved consistency of response is anticipated in T1 plants not having come directly from tissue culture. These plants were compared against wildtype KY160 tobacco. All plants were sprayed with a track sprayer set at 187 L/ha. The plants were sprayed from a range of 140-2240 g ac/ha 2,4-D dimethylamine salt (DMA), 70-1120 g ace/ha triclopyr or 35-560 g ae/ha fluroxypyr. All applications were formulated in water. Each treatment was replicated 2-4 times. Plants were evaluated at 3 and 14 days after treatment. Plants were assigned injury rating with respect to stunting, chlorosis, and necrosis. The T1 generation is segregating, so some variable response is expected due to difference in zygosity.

[2] = system: wildtype KY160 tobacco; test: Cross tolerance test, wildtype tobacco; format: in vivo, Nicotiana tabacum
Source text: as §1

[3] = system: Roundup Ready (RR) control corn hybrid (2P782); test: Field tolerance of corn: visual injury and brace root injury, control hybrid; format: in vivo, Zea mays; conditions: for visual injury: 14 DAT; for % Visual Injury 14DAT: 2P782 control
Protocol: Seeds were planted with cone planter on 40-inch row spacing at Wayside and 30 inch spacing at Fowler. […] Herbicide treatments were 2,4-D (dimethylamine salt) at 1120, 2240 and 4480 g ae/ha, triclopyr at 840 g ae/ha, fluroxypyr at 280 g ae/ha and an untreated control. The AAD-12 (v1) events contained the AHAS gene as a selectable marker. The F2 corn events were segregating so the AAD-12 (v1) plants were treated with imazethapyr at 70 g ae/ha to remove the null plants. Herbicide treatments were applied when corn reached the V6 stage using compressed air backpack sprayer delivering 187 L/ha carrier volume at 130-200 kpa pressure. Visual injury ratings were taken at 7, 14 and 21 days after treatment.

[4] = system: AAD-12 (v1) (pDAS1580) T2 tobacco plants; test: Auxinic herbicide cross tolerance of stacked tobacco, AAD-12 T2; format: in vivo, Nicotiana tabacum
Protocol: Homozygous AAD-12 (v1) (pDAS1580) and AAD-1 (v3) (pDAB721) plants (see PCT/US2005/014737 for the latter) were both reciprocally crossed and F1 seed was collected. The F1 seed from two reciprocal crosses of each gene were stratified and treated 4 reps of each cross were treated under the same spray regimen as used for the other testing with one of the following treatments: 70, 140, 280 g ac/ha fluroxypyr (selective for the AAD-12 (v1) gene); 280, 560, 1120 g ae/ha R-dichloroprop (selective for the AAD-1 (v3) gene); or 560, 1120, 2240 g ae/ha 2,4-D DMA (to confirm 2,4-D tolerance). Homozygous T2 plants of each gene were also planted for use as controls. Plants were graded at 3 and 14 DAT.

[5] = system: wild-type canola (Nex710); test: Field tolerance of canola, wild-type; format: in vivo, Brassica napus; conditions: for % Visual Injury at 14 DAT: Wild Type (Nex710)
Protocol: Field level tolerance trial was conducted on two AAD-12 (v1) events 3759(20)018.001 and 3759(18)030.001 and a wild-type canola (Nex710) in Fowler, Ind. The experimental design was a randomized complete block design with 3 replications. Herbicide treatments were 2,4-D (dimethylamine salt) at 280, 560, 1120, 2240 and 4480 g ac/ha, triclopyr at 840 g ae/ha, fluroxypyr at 280 g ae/ha and an untreated control. Within each herbicide treatment, single 20 ft row/event for event 3759(18)030.0011, 3759(18)018.001 and wild-type line (Nex710) were planted with a 4 row drill on 8 inch row spacing. Herbicide treatments were applied when canola reached the 4-6 leaf stage using compressed air backpack sprayer delivering 187 L/ha carrier volume at 130-200 kpa pressure. Visual injury ratings were taken at 7, 14 and 21 days after application.

[6] = system: Pat/Cry1f-Control Arabidopsis; test: Foliar-applied auxinic herbicides on transformed control Arabidopsis; format: in vivo, Arabidopsis thaliana; conditions: Pyridyloxyacetic auxins
Protocol: The ability of AAD-12 (v1) to provide resistance to other aryloxyalkanoate auxin herbicides in transgenic Arabidopsis was determined by foliar application of various substrates. T2 generation Arabidopsis seed was stratified, and sown into selection trays much like that of Arabidopsis (Example 6.4). A transformed-control line containing PAT and the insect resistance gene Cry1F was planted in a similar manner. Seedlings were transferred to individual 3-inch pots in the greenhouse. All plants were sprayed with the use of a track sprayer set at 187 L/ha. The plants were sprayed with a range of pyridyloxyacetate herbicides: 280-2240 g ae/ha triclopyr (Garlon 3A, Dow AgroSciences) and 280-2240 g ae/ha fluroxypyr (Starane, Dow AgroSciences); and the 2,4-D metabolite resulting from AAD-12 activity, 2,4-dichlorophenol (DCP, Sigma) (at a molar equivalent to 280-2240 g ac/ha of 2,4-D, technical grade DCP was used). All applications were formulated in water. Each treatment was replicated 3-4 times. Plants were evaluated at 3 and 14 days after treatment.

With `CNC.O=C(O)COc1ccc(Cl)cc1Cl` [2,4-D DMA] the “Average % Injury of Replicates 14 DAT” value ([1]; T1 1580(1)-004, 140 g ae/ha) was 0%, the “Average % Injury of Replicates 14 DAT” value ([1]; T1 1580(1)-004, 560 g ae/ha) was 0% and the “Average % Injury of Replicates 14 DAT” value ([1]; T1 1580(1)-004, 2240 g ae/ha) was 0%. For the same compound, the “Average % Injury of Replicates 14 DAT” value ([1]; T1 1580(1)-018, 140 g ae/ha) was 0%, the “Average % Injury of Replicates 14 DAT” value ([1]; T1 1580(1)-018, 560 g ae/ha) was 0% and the “Average % Injury of Replicates 14 DAT” value ([1]; T1 1580(1)-018, 2240 g ae/ha) was 0%. For the same compound, the “Average % Injury of Replicates 14 DAT” value ([2]; 140 g ae/ha) was 45%, the “Average % Injury of Replicates 14 DAT” value ([2]; 560 g ae/ha) was 60% and the “Average % Injury of Replicates 14 DAT” value ([2]; 2240 g ae/ha) was 73%.

In the case of `O=C(O)COc1ccc(Cl)cc1Cl` [2,4-D, 2,4-dichlorophenoxyacetic acid], the visual injury ([3]; 2,4-D at 4480 g ae/ha, V6 stage) is reported as 44%, the “% Visual Injury 14DAT” value ([3]; 1120 g ae/ha) is reported as 9% and the “% Visual Injury 14DAT” value ([3]; 2240 g ae/ha) is reported as 20%. The “% Visual Injury 14DAT” value ([3]; 4480 g ae/ha) was 34%, the brace root injury ([3]; 4480 g ae/ha of 2,4-D) was “severe brace root fusing and malformation” and the “Brace Root Injury Rating (0-10 scale) 28DAT” value (from here on “Brace Root Injury Rating”) ([3]; Wild-type NK603, 1120 g ae/ha) was 3. The “Brace Root Injury Rating” value ([3]; Wild-type NK603, 2240 g ae/ha) was 5, the “Brace Root Injury Rating” value ([3]; Wild-type NK603, 4480 g ae/ha) was 6 and the injury ([1]; 4× field rate (2240 g ae/ha) for 2,4-D or below) was “No injury”. For the same compound, the “Average % injury 14 DAT” value ([4]; 560 g ae/ha) was 0%, the “Average % injury 14 DAT” value ([4]; 1120 g ae/ha) was 0% and the “Average % injury 14 DAT” value ([4]; 2240 g ae/ha) was 0%. The visual injury ([5]; 2,4-D at 2240 g ae/ha (4× rate), 14DAT) was 72%, the “% Visual Injury at 14 DAT” value ([5]; 280 GM AE/HA) was 0 e % and the “% Visual Injury at 14 DAT” value ([5]; 560 GM AE/HA) was 15 d %. The “% Visual Injury at 14 DAT” value ([5]; 1120 GM AE/HA) was 33 bc % and the “% Visual Injury at 14 DAT” value ([5]; 2240 GM AE/HA) was 48 a %.

In the case of `C[C@@H](Oc1ccc(Cl)cc1Cl)C(=O)O` [(R)-dichlorprop, R-2,4-dichlorophenoxypropionic acid], the “Average % injury 14 DAT” value ([4]; 280 g ae/ha) is reported as 15%, the “Average % injury 14 DAT” value ([4]; 560 g ae/ha) is reported as 50% and the “Average % injury 14 DAT” value ([4]; 1120 g ae/ha) is reported as 70%.

With `Nc1c(Cl)c(F)nc(OCC(=O)O)c1Cl` [Fluroxypyr] the “Ave % Injury 14DAT” value ([6]; 280 g ae/ha foliar) was 75* %, the “Ave % Injury 14DAT” value ([6]; 560 g ae/ha foliar) was 75* % and the “Ave % Injury 14DAT” value ([6]; 1120 g ae/ha foliar) was 75* %. The “Ave % Injury 14DAT” value ([6]; 2240 g ae/ha foliar) was 75* %, the “% Visual Injury 14DAT” value ([3]; 280 g ae/ha) was 11% and the brace root injury ([3]; Fluroxypyr at 280 g ae/ha) was “moderate brace root swelling and wandering”. The visual injury ([3]; Fluroxypyr at 280 g ae/ha) was 11%, the “Brace Root Injury Rating” value ([3]; Wild-type NK603, 280 g ae/ha) was 2 and the injury ([1]; 35-560 g ae/ha fluroxypyr) was “greatest injury”. The “Average % Injury of Replicates 14 DAT” value ([1]; T1 1580(1)-004, 35 g ae/ha) was 0%, the “Average % Injury of Replicates 14 DAT” value ([1]; T1 1580(1)-004, 140 g ae/ha) was 0% and the “Average % Injury of Replicates 14 DAT” value ([1]; T1 1580(1)-004, 560 g ae/ha) was 3%. The “Average % Injury of Replicates 14 DAT” value ([1]; T1 1580(1)-018, 35 g ae/ha) was 8%, the “Average % Injury of Replicates 14 DAT” value ([1]; T1 1580(1)-018, 140 g ae/ha) was 10% and the “Average % Injury of Replicates 14 DAT” value ([1]; T1 1580(1)-018, 560 g ae/ha) was 18%. The “Average % Injury of Replicates 14 DAT” value ([2]; 35 g ae/ha) was 85%, the “Average % Injury of Replicates 14 DAT” value ([2]; 140 g ae/ha) was 93% and the “Average % Injury of Replicates 14 DAT” value ([2]; 560 g ae/ha) was 100%. The “Average % injury 14 DAT” value ([4]; 70 g ae/ha) was 0%, the “Average % injury 14 DAT” value ([4]; 140 g ae/ha) was 0% and the visual injury ([5]; Fluroxypyr at 280 g ae/ha, 14DAA) was 37%. For the same compound, the “% Visual Injury at 14 DAT” value ([5]; 280 GM AE/HA) was 37 ab %.

With `O=C(O)COc1nc(Cl)c(Cl)cc1Cl` [triclopyr] the “Ave % Injury 14DAT” value ([6]; 280 g ae/ha foliar) was 52%, the “Ave % Injury 14DAT” value ([6]; 560 g ae/ha foliar) was 58% and the “Ave % Injury 14DAT” value ([6]; 1120 g ae/ha foliar) was 75* %. The “Ave % Injury 14DAT” value ([6]; 2240 g ae/ha foliar) was 75* %, the “% Visual Injury 14DAT” value ([3]; 840 g ae/ha) was 31% and the visual injury ([3]; 2× rate of triclopyr (840 g ae/ha)) was 31%. For the same compound, the “average brace root injury score (0-10 scale)” value ([3]; Triclopyr at 840 g ae/ha, 28DAT) was 7, the “Brace Root Injury Rating” value ([3]; Wild-type NK603, 840 g ae/ha) was 7 and the injury ([1]; 70-1120 g ae/ha triclopyr, in one event line) was “Some injury”. The “Average % Injury of Replicates 14 DAT” value ([1]; T1 1580(1)-004, 70 g ae/ha) was 0%, the “Average % Injury of Replicates 14 DAT” value ([1]; T1 1580(1)-004, 280 g ae/ha) was 0% and the “Average % Injury of Replicates 14 DAT” value ([1]; T1 1580(1)-004, 1120 g ae/ha) was 0%. For the same compound, the “Average % Injury of Replicates 14 DAT” value ([1]; T1 1580(1)-018, 70 g ae/ha) was 5%, the “Average % Injury of Replicates 14 DAT” value ([1]; T1 1580(1)-018, 280 g ae/ha) was 5% and the “Average % Injury of Replicates 14 DAT” value ([1]; T1 1580(1)-018, 1120 g ae/ha) was 8%. The “Average % Injury of Replicates 14 DAT” value ([2]; 70 g ae/ha) was 40%, the “Average % Injury of Replicates 14 DAT” value ([2]; 280 g ae/ha) was 65% and the “Average % Injury of Replicates 14 DAT” value ([2]; 1120 g ae/ha) was 80%. The visual injury ([5]; 2× rate of triclopyr (840 g ae/ha), 14 DAT) was 25% and the “% Visual Injury at 14 DAT” value ([5]; 840 GM AE/HA) was 25 cd %.
